Results from ChEMBL document CHEMBL5576135, “Discovery of Indolo[3,2-c]isoquinoline Derivatives as Novel Top1/2 Dual Inhibitors with Orally Efficacious Antitumor Activity and Low Toxicity” (J Med Chem, 2024).
Activity calls are given as the source filed them. The rule behind the calls is not given here.

Key:
[1] = tested on: MCF7; assay: Antiproliferative activity against human MCF7 cells assessed as inhibition of cell growth incubated for 96 hrs by MTT based ELISA; format: functional; details: MCF7, 96 h
[2] = tested on: MDA-MB-231; assay: Antiproliferative activity against human MDA-MB-231 cells assessed as inhibition of cell growth incubated for 96 hrs by MTT based ELISA; format: functional; details: MDA-MB-231, 96 h
[3] = tested on: PC-3; assay: Antiproliferative activity against human PC-3 cells assessed as inhibition of cell growth incubated for 96 hrs by MTT based ELISA; format: functional; details: PC-3, 96 h
[4] = tested on: HCT-116; assay: Antiproliferative activity against human HCT-116 cells assessed as inhibition of cell growth incubated for 96 hrs by MTT based ELISA; format: functional; details: HCT-116, 96 h
[5] = tested on: NCI-H2228; assay: Antiproliferative activity against human NCI-H2228 cells assessed as inhibition of cell growth incubated for 96 hrs by MTT based ELISA; format: functional; details: NCI-H2228, 96 h
[6] = tested on: Huh-7; assay: Antiproliferative activity against human Huh-7 cells assessed as inhibition of cell growth incubated for 96 hrs by MTT based ELISA; format: functional; details: Huh-7, 96 h
[7] = target: T1, DNA topoisomerase 1 (Homo sapiens) (UniProt P11387); assay: Inhibition of Topoisomerase I (unknown origin) using pBR322 DNA as substrate at 200 uM incubated for 15 mins by EtBr staining based agarose gel electrophoresis method relative to control
T1 sequence (whole entry): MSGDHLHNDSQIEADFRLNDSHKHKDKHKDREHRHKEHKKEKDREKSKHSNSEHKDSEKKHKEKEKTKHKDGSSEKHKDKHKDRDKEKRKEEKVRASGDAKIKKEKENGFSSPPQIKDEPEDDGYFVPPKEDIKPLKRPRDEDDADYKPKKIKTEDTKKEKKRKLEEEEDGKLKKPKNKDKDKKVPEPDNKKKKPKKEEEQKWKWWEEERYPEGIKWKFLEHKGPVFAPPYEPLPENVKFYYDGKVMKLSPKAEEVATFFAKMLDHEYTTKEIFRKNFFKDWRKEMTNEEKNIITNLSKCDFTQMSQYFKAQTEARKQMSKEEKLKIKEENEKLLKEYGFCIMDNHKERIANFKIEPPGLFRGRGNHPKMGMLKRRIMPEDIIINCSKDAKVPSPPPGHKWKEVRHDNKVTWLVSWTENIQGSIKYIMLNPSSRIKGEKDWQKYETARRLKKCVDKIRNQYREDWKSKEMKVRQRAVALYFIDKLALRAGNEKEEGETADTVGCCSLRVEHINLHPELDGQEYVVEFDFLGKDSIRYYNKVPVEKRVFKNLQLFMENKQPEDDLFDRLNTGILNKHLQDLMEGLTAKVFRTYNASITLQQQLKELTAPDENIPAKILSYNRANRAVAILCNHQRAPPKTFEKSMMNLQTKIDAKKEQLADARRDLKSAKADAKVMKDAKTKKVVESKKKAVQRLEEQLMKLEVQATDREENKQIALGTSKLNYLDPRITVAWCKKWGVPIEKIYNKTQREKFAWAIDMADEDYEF

[8] = target: DNA topoisomerase 2-alpha (Homo sapiens) (UniProt P11388); assay: Inhibition of Topoisomerase 2 (unknown origin) using pBR322 DNA as substrate at 100 uM incubated for 15 mins by EtBr staining based agarose gel electrophoresis method relative to control
Sequence of DNA topoisomerase 2-alpha (Homo sapiens) (P11388 whole entry): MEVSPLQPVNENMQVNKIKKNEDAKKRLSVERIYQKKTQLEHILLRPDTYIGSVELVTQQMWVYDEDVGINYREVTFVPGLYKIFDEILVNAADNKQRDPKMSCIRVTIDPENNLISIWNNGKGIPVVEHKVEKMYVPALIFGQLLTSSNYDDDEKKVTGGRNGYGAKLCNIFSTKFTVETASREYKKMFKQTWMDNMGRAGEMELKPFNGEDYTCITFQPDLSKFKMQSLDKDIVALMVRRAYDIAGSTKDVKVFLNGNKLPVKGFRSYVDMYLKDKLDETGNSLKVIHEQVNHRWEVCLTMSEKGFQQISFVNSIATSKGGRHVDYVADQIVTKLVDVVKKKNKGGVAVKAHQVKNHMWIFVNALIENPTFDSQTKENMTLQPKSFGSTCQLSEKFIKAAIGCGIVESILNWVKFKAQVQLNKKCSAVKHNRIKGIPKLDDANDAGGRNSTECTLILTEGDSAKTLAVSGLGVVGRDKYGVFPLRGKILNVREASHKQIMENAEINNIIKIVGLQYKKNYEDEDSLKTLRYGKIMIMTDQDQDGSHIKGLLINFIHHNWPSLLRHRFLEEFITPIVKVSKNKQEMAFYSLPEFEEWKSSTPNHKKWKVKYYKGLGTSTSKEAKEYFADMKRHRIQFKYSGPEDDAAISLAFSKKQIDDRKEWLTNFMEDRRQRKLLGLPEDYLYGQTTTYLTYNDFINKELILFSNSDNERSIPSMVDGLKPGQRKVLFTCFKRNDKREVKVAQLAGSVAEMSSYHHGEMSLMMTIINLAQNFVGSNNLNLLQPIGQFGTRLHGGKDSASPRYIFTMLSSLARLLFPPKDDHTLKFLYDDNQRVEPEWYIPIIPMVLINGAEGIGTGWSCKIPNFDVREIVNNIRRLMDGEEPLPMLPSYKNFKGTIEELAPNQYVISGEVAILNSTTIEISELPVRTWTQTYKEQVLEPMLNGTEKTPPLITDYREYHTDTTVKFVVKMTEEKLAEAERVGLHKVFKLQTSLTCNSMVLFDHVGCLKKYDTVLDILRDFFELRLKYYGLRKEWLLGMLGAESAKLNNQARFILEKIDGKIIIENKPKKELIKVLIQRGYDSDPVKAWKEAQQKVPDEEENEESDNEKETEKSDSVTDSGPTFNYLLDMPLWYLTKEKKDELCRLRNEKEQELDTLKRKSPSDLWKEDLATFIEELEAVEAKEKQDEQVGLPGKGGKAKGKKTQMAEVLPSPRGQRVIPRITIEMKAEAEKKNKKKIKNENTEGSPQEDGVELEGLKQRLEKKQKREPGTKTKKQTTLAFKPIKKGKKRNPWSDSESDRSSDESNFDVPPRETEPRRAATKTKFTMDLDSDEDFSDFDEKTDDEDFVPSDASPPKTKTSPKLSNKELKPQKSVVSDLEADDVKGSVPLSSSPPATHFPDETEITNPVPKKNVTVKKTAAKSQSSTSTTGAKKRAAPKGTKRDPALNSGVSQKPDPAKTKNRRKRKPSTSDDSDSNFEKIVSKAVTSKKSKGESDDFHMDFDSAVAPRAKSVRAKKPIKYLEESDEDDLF

[9] = target: T1, DNA topoisomerase 1 (Homo sapiens); assay: Inhibition of Topoisomerase I (unknown origin) using pBR322 DNA as substrate at 50 uM incubated for 15 mins by EtBr staining based agarose gel electrophoresis method
[10] = target: DNA topoisomerase 2-alpha (Homo sapiens) (UniProt P11388); assay: Inhibition of Topoisomerase 2 (unknown origin) using pBR322 DNA as substrate at 50 uM incubated for 15 mins by EtBr staining based agarose gel electrophoresis method

Compound | IC50 [1] [µM] | IC50 [2] [µM] | IC50 [3] [µM] | IC50 [4] [µM] | IC50 [5] [µM] | IC50 [6] [µM] | inhibition [7] | inhibition [8] | inhibition [9] | inhibition [10]
O=C(CCCn1c2cc3c(cc2c2[nH]c(=O)c4ccccc4c21)OCO3)NO | 6.57 | 4.88 | 7.14 | 4.08 | > 10 | > 10 | > 95% | > 95% | Active | Active
CN(C)CCCn1c2ccccc2c2[nH]c(=O)c3ccccc3c21 | 6.84 | 5.9 | 4.38 | 4.05 | 7.03 | > 10 |  |  |  | 
COc1ccc2c3nc(Cl)c4ccccc4c3n(CCCN(C)C)c2c1 | 1.83 | 1.36 | 1.65 | 0.96 | 1.5 | 2.49 |  |  |  | 
COc1ccc2c(c1)c1[nH]c(=O)c3ccccc3c1n2CCCN(C)C | 1.41 | 1.92 | 1.32 | 0.55 | 2.03 | 2.55 |  |  |  | 
COc1ccc2c(c1)c1nc(Cl)c3ccccc3c1n2CCCNc1nc(=O)n([C@@H]2O[C@H](CO)[C@@H](O)[C@H]2O)cc1F | > 10 | > 10 | > 10 | > 10 | > 10 | > 10 |  |  |  | 
O=C(CCCn1c2ccc(OC(F)F)cc2c2nc(Cl)c3ccccc3c21)NO | 4.35 | 3.69 | 4.11 | 2.5 | 5.31 | 4.13 |  |  |  | 
CC(C)Oc1ccc2c(c1)c1[nH]c(=O)c3ccccc3c1n2CCCN(C)C | > 10 | 5.6 | 4.91 | 2.26 | 2.56 | 6.74 |  |  |  | 
O=C(CCCn1c2ccccc2c2nc(Cl)c3ccccc3c21)NO | 3.87 | 2.98 | 3.14 | 2.87 | 4.28 | 5.76 |  |  |  | 
COc1ccc2c(c1)c1nc(Cl)c3ccccc3c1n2CCCNc1ccn([C@H]2C[C@H](O)[C@@H](CO)O2)c(=O)n1 | > 10 | > 10 | > 10 | > 10 | > 10 | > 10 |  |  |  | 
COc1ccc2c(c1)c1nc(Cl)c3ccccc3c1n2CCCn1c(=O)[nH]cc(F)c1=O | > 10 | > 10 | > 10 | > 10 | > 10 | > 10 |  |  |  | 
COc1ccc2c3nc(Cl)c4ccccc4c3n(CCCC(=O)NO)c2c1 | 4.6 | 3.06 | 3.7 | 2.7 | 4.55 | > 10 |  |  |  | 
COc1ccc2c(c1)c1nc(Cl)c3ccccc3c1n2CCCNc1ccn([C@@H]2O[C@H](CO)[C@@H](O)[C@@H]2O)c(=O)n1 | > 10 | > 10 | > 10 | > 10 | > 10 | > 10 |  |  |  | 
COc1ccc2c(c1)c1nc(Cl)c3ccccc3c1n2CCCN1C(=O)CC(C)(C)CC1=O | > 10 | > 10 | > 10 | > 10 | > 10 | > 10 |  |  |  | 
CN(C)CCCn1c2ccccc2c2nc(Cl)c3ccccc3c21 | 2.75 | 1.95 | 2.67 | 1.33 | 1.51 | 2.99 |  |  |  | 
COc1ccc2c(c1)c1nc(Cl)c3ccccc3c1n2CCCn1c(=O)c(F)cn([C@@H]2O[C@H](CO)[C@@H](O)[C@H]2O)c1=O | > 10 | > 10 | > 10 | > 10 | > 10 | > 10 |  |  |  | 
COc1ccc2c(c1)c1nc(Cl)c3ccccc3c1n2CCCn1cc(C)nc1C | > 10 | > 10 | > 10 | > 10 | > 10 | > 10 |  |  |  | 
CCOc1ccc2c(c1)c1nc(Cl)c3ccccc3c1n2CCCC(=O)NO | 3.73 | 1.92 | 2.58 | 1.8 | 4.66 | 3.92 |  |  |  | 

Continued, values first:

IC50 [1] [µM] | IC50 [2] [µM] | IC50 [3] [µM] | IC50 [4] [µM] | IC50 [5] [µM] | IC50 [6] [µM] | inhibition [7] | inhibition [8] | inhibition [9] | inhibition [10] | Compound
1.36 | 2.24 | 0.82 | 1.65 | 2.41 | 3.31 |  |  |  |  | COc1ccc2c(c1)c1nc(Cl)c3ccccc3c1n2CCCN1CCN(C)CC1
> 10 | > 10 | > 10 | > 10 | > 10 | > 10 |  |  |  |  | COc1ccc2c(c1)c1nc(Cl)c3ccccc3c1n2CCCN1CCC(CO)CC1
1.45 | 2.04 | 1.07 | 1.38 | 2.04 | 2.18 | inactive | inactive | inactive | inactive | COc1ccc2c(c1)c1ncc3ccccc3c1n2CCCN1CCN(C(C)C)CC1
2.96 | 4.1 | 2.7 | 2.55 | 2.73 | 4.36 |  |  |  |  | COc1ccc2c(c1)c1nc(Cl)c3ccccc3c1n2CCCN1CCC(N(C)C)CC1
0.97 | 0.8 | 1.55 | 1.38 | 3.06 | 3.41 |  |  |  |  | CCOc1ccc2c(c1)c1ncc3ccccc3c1n2CCCC(=O)NO
> 10 | > 10 | > 10 | > 10 | > 10 | > 10 |  |  |  |  | COc1ccc2c(c1)c1nc(Cl)c3ccccc3c1n2CCCN1CCC[C@@H](O)C1
1.12 | 1.68 | 0.74 | 1.17 | 1.84 | 2.24 | inactive | inactive | inactive | inactive | COc1ccc2c(c1)c1ncc3ccccc3c1n2CCCN1CCN(C)CC1
1.76 | 2.52 | 1.12 | 1.79 | 2.36 | 2.26 |  |  |  |  | COc1ccc2c(c1)c1nc(Cl)c3ccccc3c1n2CCCN1CCN(C(C)C)CC1
1.64 | 1.2 | 1.22 | 0.82 | 1.28 | 1.77 |  |  |  |  | COc1ccc2c(c1)c1nc(Cl)c3ccccc3c1n2CCCN(C)C
4.56 | 1.78 | 2.57 | 2.14 | 4.86 | 4.43 |  |  |  |  | CC(C)Oc1ccc2c(c1)c1ncc3ccccc3c1n2CCCC(=O)NO
> 10 | > 10 | > 10 | > 10 | > 10 | > 10 |  |  |  |  | COc1ccc2c(c1)c1nc(Cl)c3ccccc3c1n2CCCn1cnc(C)c1
> 10 | > 10 | > 10 | > 10 | > 10 | > 10 |  |  |  |  | COc1ccc2c(c1)c1nc(Cl)c3ccccc3c1n2CCCN1CC[C@@H](O)C1
1.45 | 1.09 | 1.01 | 0.62 | 1.05 | 1.5 |  |  |  |  | COc1ccc2c(c1)c1ncc3ccccc3c1n2CCCN(C)C
> 10 | > 10 | > 10 | > 10 | > 10 | > 10 |  |  |  |  | COc1ccc2c(c1)c1nc(Cl)c3ccccc3c1n2CCCN1CCC[C@@H]1CO
3.61 | 5.04 | 3.26 | 3.68 | 3.1 | 4.57 |  |  |  |  | COc1ccc2c(c1)c1nc(Cl)c3ccccc3c1n2CCCN1CCCC(O)C1 (stereo unspecified)
> 10 | > 10 | > 10 | > 10 | > 10 | > 10 |  |  |  |  | COc1ccc2c(c1)c1nc(Cl)c3ccccc3c1n2CCCN1CCOCC1
5.71 | 2.38 | 4.3 | 4.07 | 3.74 | 3.37 |  |  |  |  | O=C(CCCn1c2ccc(OC(F)F)cc2c2ncc3ccccc3c21)NO
